According to ChEMBL document CHEMBL1140582, “Development of CXCR3 antagonists. Part 2: Identification of 2-amino(4-piperidinyl)azoles as potent CXCR3 antagonists” (Bioorg Med Chem Lett, 2007):
Converted amounts (≈) assume the structure as drawn.

What was measured:
[1] = target: T1, C-X-C chemokine receptor type 3 (Homo sapiens, UniProt P49682); test: Binding affinity to human CXCR3 receptor expressed in CHO membrane by ITAC-stimulated GTP gammaS assay; assay type: cell membranes
T1 sequence (P49682 whole entry): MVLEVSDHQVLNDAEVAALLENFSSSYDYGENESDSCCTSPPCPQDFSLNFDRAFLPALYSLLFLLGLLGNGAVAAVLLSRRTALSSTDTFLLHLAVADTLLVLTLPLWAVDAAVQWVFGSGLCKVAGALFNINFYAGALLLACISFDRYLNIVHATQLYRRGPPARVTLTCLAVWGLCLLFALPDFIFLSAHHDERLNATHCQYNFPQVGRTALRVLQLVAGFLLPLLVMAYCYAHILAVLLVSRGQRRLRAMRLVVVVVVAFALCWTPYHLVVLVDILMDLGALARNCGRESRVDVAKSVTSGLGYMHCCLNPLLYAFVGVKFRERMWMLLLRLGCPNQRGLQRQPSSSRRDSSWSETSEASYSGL

[2] = Partition coefficient, log D at pH 7.4; details: octanol/water
[3] = Intrinsic clearance in mouse microsomes at 0.5 uM; assay type: ADME, Microsome
CYP2D6 = CYP2D6 (Homo sapiens, UniProt P10635); test: Inhibition of CYP2D6 at 50 uM; assay type: ADME
Sequence of CYP2D6 (P10635 whole entry): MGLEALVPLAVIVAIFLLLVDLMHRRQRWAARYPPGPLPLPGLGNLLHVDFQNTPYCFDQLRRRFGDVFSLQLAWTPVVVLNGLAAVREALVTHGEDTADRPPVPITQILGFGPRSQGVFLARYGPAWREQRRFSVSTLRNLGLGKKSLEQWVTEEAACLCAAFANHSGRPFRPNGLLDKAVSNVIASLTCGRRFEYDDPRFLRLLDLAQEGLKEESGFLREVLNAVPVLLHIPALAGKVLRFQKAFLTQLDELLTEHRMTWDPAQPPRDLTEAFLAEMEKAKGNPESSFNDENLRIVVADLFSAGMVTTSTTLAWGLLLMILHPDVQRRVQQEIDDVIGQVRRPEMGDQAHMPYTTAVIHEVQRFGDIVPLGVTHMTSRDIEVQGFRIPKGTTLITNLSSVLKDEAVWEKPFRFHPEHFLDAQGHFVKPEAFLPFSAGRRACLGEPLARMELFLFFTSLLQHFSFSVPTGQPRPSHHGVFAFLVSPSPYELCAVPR

Cytochrome P450 2D6 = Cytochrome P450 2D6 (Homo sapiens, UniProt P10635); test: Inhibition of CYP2D6; assay type: ADME
Sequence of Cytochrome P450 2D6 (P10635 whole entry): as above

[4] = target: T2, C-X-C chemokine receptor type 3 (Homo sapiens) (UniProt P49682); test: Inhibition of human CXCR3 expressed in CHO membrane at 10 uM by ITAC-stimulated GTP gammaS assay; assay type: cell membranes
T2 sequence (whole entry): T1 sequence (P49682 whole entry)

[5] = AUC in mouse; assay type: ADME, organism-based; details: plasma
[6] = Cmax in mouse; assay type: ADME, organism-based; details: in vivo
[7] = Clearance in mouse plasma at 10 mg/kg, po; assay type: ADME, organism-based; design: dose 10 mg/kg, route oral
[8] = Half life in mouse at 10 mg/kg, po; assay type: ADME, organism-based; design: dose 10 mg/kg, route oral; details: in vivo
Homo sapiens = organism: Homo sapiens; test: Protein binding in human plasma; details: read-out: PPB (converted)
[9] = Solubility of the compound; assay type: physicochemical

Structure (SMILES)	Ki [1] [nM]	logD [2]	clearance [3] [µL/min/mg]	also measured
CC1(C)[C@H]2CC=C(CN3CCC(N4CC(=O)N(c5ccc(Cl)c(C(F)(F)F)c5)C4=O)CC3)[C@@H]1C2	120	5.3	280	
CC1(C)[C@H]2CC=C(CN3CCC(Nc4nc(-c5ccccc5)cs4)CC3)[C@@H]1C2	880	4.7		inhibition at 50 µM (CYP2D6): < 20%
CN(c1nc2ccccc2[nH]1)C1CCN(CC2=CC[C@H]3C[C@@H]2C3(C)C)CC1	950	4.2		
CC1(C)[C@H]2CC=C(CN3CCC(Nc4nc(-c5cc(C(F)(F)F)cc(C(F)(F)F)c5)cs4)CC3)[C@@H]1C2	260	> 5	34	inhibition at 50 µM (CYP2D6): < 20%
CN(C(=O)Nc1cccc(C(F)(F)F)c1)C1CCN(CC2=CC[C@H]3C[C@@H]2C3(C)C)CC1	180			
CC1(C)[C@H]2CC=C(CN3CCC(N4CCN(c5cc(C(F)(F)F)cc(C(F)(F)F)c5)C4=O)CC3)[C@@H]1C2	170	> 5.5	7	
CN(c1nc2ccccc2o1)C1CCN(CC2=CC[C@H]3C[C@@H]2C3(C)C)CC1	720	4.6		
CC1(C)[C@H]2CC=C(CN3CCC(Nc4nc5ccc(Br)cc5s4)CC3)[C@@H]1C2	130	> 5	150	Activity (Cytochrome P450 2D6): 0.7 µM
CC1(C)[C@H]2CC=C(CN3CCC(N4CC(=O)N(c5cc(F)cc(C(F)(F)F)c5)C4=O)CC3)[C@@H]1C2	100	4.85	290	
CCc1cccc(N2C(=O)CN(C3CCN(CC4=CC[C@H]5C[C@@H]4C5(C)C)CC3)C2=O)c1	380	4.7	190	
CC1(C)[C@H]2CC=C(CN3CCC(Nc4nc5c(Br)cccc5s4)CC3)[C@@H]1C2	150	> 5	140	Activity (Cytochrome P450 2D6): 1.2 µM
CCN(C(=O)Nc1cccc(C(F)(F)F)c1)C1CCN(CC2=CC[C@H]3C[C@@H]2C3(C)C)CC1	3600			
CC(=O)c1cccc(N2C(=O)CN(C3CCN(CC4=CC[C@H]5C[C@@H]4C5(C)C)CC3)C2=O)c1		3.4		inhibition [4]: < 20%
CN(c1nc2ccccc2s1)C1CCN(CC2=CC[C@H]3C[C@@H]2C3(C)C)CC1	140	> 5	78	Activity (Cytochrome P450 2D6): 2.2 µM
CC1(C)[C@H]2CC=C(CN3CCC(N(Cc4ccccc4)C(=O)Nc4cccc(C(F)(F)F)c4)CC3)[C@@H]1C2				inhibition [4]: < 20%
CN(c1nc2cccc(Cl)c2s1)C1CCN(CC2=CC[C@H]3C[C@@H]2C3(C)C)CC1	620	> 5		Activity (Cytochrome P450 2D6): 4.1 µM
CN(c1nc2c(Cl)cccc2s1)C1CCN(CC2=CC[C@H]3C[C@@H]2C3(C)C)CC1	460	5		
CC1(C)[C@H]2CC=C(CN3CCC(Nc4nc5ccccc5s4)CC3)[C@@H]1C2	350	> 5	1	Activity (Cytochrome P450 2D6): 13 µM
CC1(C)[C@H]2CC=C(CN3CCC(Nc4nc(-c5cc(C(F)(F)F)cc(C(F)(F)F)c5)ns4)CC3)[C@@H]1C2	270	5	16	Activity (Cytochrome P450 2D6): 15 µM; AUC [5]: 10800 ng·h/mL; Cmax [6]: 2010 ng/mL; CL/F [7]: 2.8 mL/min/kg; half-life [8]: 5.4 h; fraction unbound (Homo sapiens): 0.003; solubility [9]: 2.7 µg/mL (≈ 5.09 µM)
CC1(C)[C@H]2CC=C(CN3CCC(N4CCN(c5cc(F)cc(C(F)(F)F)c5)C4=O)CC3)[C@@H]1C2	200	4.6	88	
CC1(C)[C@H]2CC=C(CN3CCC(Nc4nc(-c5ccc(Cl)c(Cl)c5)cs4)CC3)[C@@H]1C2	460	> 5		inhibition at 50 µM (CYP2D6): < 20%
CC1(C)[C@H]2CC=C(CN3CCC(N4CC(=O)N(c5cccc(C(F)(F)F)c5)C4=O)CC3)[C@@H]1C2	220	4.6	318	
CN(c1nc2ccc(Cl)cc2s1)C1CCN(CC2=CC[C@H]3C[C@@H]2C3(C)C)CC1	170	5	48	Activity (Cytochrome P450 2D6): 7.3 µM
CN(c1nc2cc(Cl)ccc2s1)C1CCN(CC2=CC[C@H]3C[C@@H]2C3(C)C)CC1	290	5	41	Activity (Cytochrome P450 2D6): 3.5 µM
CC1(C)[C@H]2CC=C(CN3CCC(Nc4nc5ccccc5o4)CC3)[C@@H]1C2	680			
CC1(C)[C@H]2CC=C(CN3CCC(N4CC(=O)N(c5cc(C(F)(F)F)cc(C(F)(F)F)c5)C4=O)CC3)[C@@H]1C2	26	> 5.5	220	
CSc1cccc(N2C(=O)CN(C3CCN(CC4=CC[C@H]5C[C@@H]4C5(C)C)CC3)C2=O)c1	750	5	230	
CCc1cccc(N(C)C(=O)NC2CCN(CC3=CC[C@H]4C[C@@H]3C4(C)C)CC2)c1	3500			
